Our source for the T/C values is PubChem BioAssay AID256 (DTP/NCI, 2004).

Where “and” joins values, the source holds several entries; their conditions need not be identical. Equal entries are not always repeated. Toxic doses and inconclusive results are not listed.

The experiment concerns CD2F1 mice, L1210 leukemia ip, survival T/C. The experiment in a line: NCI In Vivo Anticancer Drug Screen. Data for tumor model L1210 Leukemia (intraperitoneal) in CD2F1 (CDF1) mice. The conditions noted are these: higher = longer survival. The method in brief:
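Transplantable tumor in mice; compound-treated vs vehicle-treated groups. Read-out = treated/control ratio of the measured endpoint.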

Setting [1] is: endpoint: mean survival time, dose: 100.0 mg/kg/injection, schedule: Q04DX003 (ip), vehicle: saline with Tween-80.
The mark [2] stands for this setting: endpoint: mean survival time, dose: 200.0 mg/kg/injection, schedule: Q04DX003 (ip), vehicle: saline with Tween-80.
[3] abbreviates: endpoint: mean survival time, dose: 400.0 mg/kg/injection, schedule: Q04DX003 (ip), vehicle: saline with Tween-80.
Setting [4] is: endpoint: mean survival time, dose: 100.0 mg/kg/injection, schedule: Q01DX009 (ip), vehicle: saline with Tween-80.
The mark [5] stands for this setting: endpoint: mean survival time, dose: 200.0 mg/kg/injection, schedule: Q01DX009 (ip), vehicle: saline with Tween-80.
Setting [6] is: endpoint: mean survival time, dose: 400.0 mg/kg/injection, schedule: Q01DX009 (ip), vehicle: saline with Tween-80.
The mark [7] stands for this setting: endpoint: mean survival time, dose: 100.0 mg/kg/injection, schedule: Q04DX003 (ip), vehicle: Klucel (hydroxypropylcellulose) (HPC).
[8] abbreviates: endpoint: mean survival time, dose: 200.0 mg/kg/injection, schedule: Q04DX003 (ip), vehicle: Klucel (hydroxypropylcellulose) (HPC).
The mark [9] stands for this setting: endpoint: mean survival time, dose: 400.0 mg/kg/injection, schedule: Q04DX003 (ip), vehicle: Klucel (hydroxypropylcellulose) (HPC).
Setting [10] is: endpoint: mean survival time, dose: 100.0 mg/kg/injection, schedule: Q04DX002 (ip), vehicle: saline with Tween-80.
Where [11] appears, read: endpoint: mean survival time, dose: 200.0 mg/kg/injection, schedule: Q04DX002 (ip), vehicle: saline with Tween-80.

Regarding `COC(=O)C1CC2C(CCC3C(C)(C(=O)OC)CCCC23C)C(=O)C1(O)C(C)C` (stereo not given), the T/C reads like this: under setting [1], 101 % of control; under setting [2], 105 % of control; under setting [3], 91 % of control.
Take `CC(=O)OC1C(CO)OC2C1Oc1nc(=N)c(F)cn12` (stereo not given): the T/C is 101 % of control (endpoint: mean survival time, dose: 3.13 mg/kg/injection, schedule: Q01DX009 (ip), vehicle: saline); 106 % of control (endpoint: mean survival time, dose: 6.25 mg/kg/injection, schedule: Q01DX009 (ip), vehicle: saline); 110 % of control (endpoint: mean survival time, dose: 12.5 mg/kg/injection, schedule: Q01DX009 (ip), vehicle: saline); 116 % of control (endpoint: mean survival time, dose: 25.0 mg/kg/injection, schedule: Q01DX009 (ip), vehicle: saline).
Consider `CCOc1ccccc1N1C(=O)CSC1=S`, for which the T/C by setting is: (endpoint: mean survival time, dose: 25.0 mg/kg/injection, schedule: Q04DX002 (ip), vehicle: other) 93 % of control; (endpoint: mean survival time, dose: 50.0 mg/kg/injection, schedule: Q04DX002 (ip), vehicle: other) 93 % of control; (endpoint: mean survival time, dose: 100.0 mg/kg/injection, schedule: Q04DX002 (ip), vehicle: other) 89 % of control; (endpoint: mean survival time, dose: 200.0 mg/kg/injection, schedule: Q04DX002 (ip), vehicle: other) 101 % of control.
In the case of `CC(CO)CCC(=O)C(C)C1CC2(C)CCC3C(CCC4CC(O)CCC43C)C2C12SCCS2` (stereo not given), the T/C runs as follows: under setting [1], 98 % of control; under setting [2], 102 % of control; under setting [3], 98 % of control.
On to `CCOC(=O)CSC(=S)NC1CCCCC1`, for which the T/C is 101 % of control under setting [1], 98 % of control under setting [2] and 95 % of control under setting [3].
In the case of `O=C(O)C1(C(=O)O)CC2CC=CCC2C1` (stereo not given), the T/C was 98 % of control (endpoint: mean survival time, dose: 100.0 mg/kg/injection, schedule: Q01DX009 (ip), vehicle: saline); 100 % of control (endpoint: mean survival time, dose: 200.0 mg/kg/injection, schedule: Q01DX009 (ip), vehicle: saline); 87 % of control (endpoint: mean survival time, dose: 400.0 mg/kg/injection, schedule: Q01DX009 (ip), vehicle: saline).
As to `COC(=O)NC1=C(N2CC2)C(=O)C(NC(=O)OC)=C(N2CC2)C1=O`, the T/C is 154 % of control (endpoint: mean survival time, dose: 0.75 mg/kg/injection, schedule: Q01DX009 (ip), vehicle: saline) and 175 % of control (endpoint: mean survival time, dose: 1.5 mg/kg/injection, schedule: Q01DX009 (ip), vehicle: saline).
In the case of `CC1CCN1Cc1ccccc1` (stereo not given), the T/C (endpoint: mean survival time, dose: 12.5 mg/kg/injection, schedule: Q01DX009 (ip), vehicle: acetone) is 98 % of control; the T/C (endpoint: mean survival time, dose: 25.0 mg/kg/injection, schedule: Q01DX009 (ip), vehicle: acetone) was 98 % of control; the T/C (endpoint: mean survival time, dose: 50.0 mg/kg/injection, schedule: Q01DX009 (ip), vehicle: acetone) is 95 % of control.
Consider `C=CCSc1ncnc2c1ncn2C1OC(CO)C(O)C1O` (stereo not given), for which the T/C is 154 % of control (endpoint: mean survival time, dose: 88.0 mg/kg/injection, schedule: Q01DX009 (ip), vehicle: carboxymethylcellulose (CMC)) and 158 % of control (endpoint: mean survival time, dose: 133.0 mg/kg/injection, schedule: Q01DX009 (ip), vehicle: carboxymethylcellulose (CMC)).
With `CCN(CC)c1ccc(N)cc1`, the T/C was 96 % of control (endpoint: mean survival time, dose: 5.0 mg/kg/injection, schedule: Q01DX009 (ip), vehicle: saline); 96 % of control (endpoint: mean survival time, dose: 5.0 mg/kg/injection, schedule: Q04DX003 (ip), vehicle: saline); 96 % of control (endpoint: mean survival time, dose: 10.0 mg/kg/injection, schedule: Q01DX009 (ip), vehicle: saline); 97 % of control (endpoint: mean survival time, dose: 10.0 mg/kg/injection, schedule: Q04DX003 (ip), vehicle: saline); 100 % of control (endpoint: mean survival time, dose: 20.0 mg/kg/injection, schedule: Q01DX009 (ip), vehicle: saline); 94 % of control (endpoint: mean survival time, dose: 20.0 mg/kg/injection, schedule: Q04DX003 (ip), vehicle: saline).
Consider `CCCCC(CC)CNCCOC(=O)c1ccc([N+](=O)[O-])cc1` (stereo not given), for which the T/C (endpoint: mean survival time, dose: 75.0 mg/kg/injection, schedule: Q01DX001 (ip), vehicle: saline) was 97 % of control; the T/C (endpoint: mean survival time, dose: 150.0 mg/kg/injection, schedule: Q01DX001 (ip), vehicle: saline) was 100 % of control; the T/C (endpoint: mean survival time, dose: 300.0 mg/kg/injection, schedule: Q01DX001 (ip), vehicle: saline) is 102 % of control.
Regarding `Cc1cc(OCC2=NCCN2)c(C)c(C)c1Cl`, the T/C was 94 % of control (endpoint: mean survival time, dose: 6.25 mg/kg/injection, schedule: Q04DX002 (ip), vehicle: saline with Tween-80); 94 % of control (endpoint: mean survival time, dose: 12.5 mg/kg/injection, schedule: Q04DX002 (ip), vehicle: saline with Tween-80); 97 % of control (endpoint: mean survival time, dose: 25.0 mg/kg/injection, schedule: Q04DX002 (ip), vehicle: saline with Tween-80).
For the compound `N#[N+]c1c([O-])[nH]c2ccccc12`, the T/C by setting is: (endpoint: median survival time, dose: 50.0 mg/kg/injection, schedule: Q04DX002 (ip), vehicle: saline with Tween-80) 110 % of control; (endpoint: median survival time, dose: 100.0 mg/kg/injection, schedule: Q04DX002 (ip), vehicle: saline with Tween-80) 110 % of control; (endpoint: median survival time, dose: 200.0 mg/kg/injection, schedule: Q04DX002 (ip), vehicle: saline with Tween-80) 120 % of control.
In the case of `CC(=O)NC1CCCCC1`, the T/C was 104 % of control under setting [4] and 102 % of control under setting [5].
In the case of `Cc1cc(S(=O)(=O)O)c(N)cc1Cl`, the T/C under setting [4] was 106 % of control, the T/C under setting [5] was 92 % of control and the T/C under setting [6] was 103 % of control.
Regarding `Cc1nc2c(N)nn(C)c2nc1C`, the T/C under setting [1] was 95 % of control, the T/C under setting [2] was 101 % of control and the T/C under setting [3] was 101 % of control.
Regarding `O=C(O)/C=C/C(=O)NC1CCCCC1`, the T/C runs as follows: under setting [1], 97 % of control and 101 % of control; under setting [2], 101 % of control and 97 % of control; under setting [3], 98 % of control and 95 % of control.
For the compound `COc1ccc(CCNC(=O)C(c2ccccc2)c2ccccc2)cc1OC`, the T/C runs as follows: under setting [4], 97 % of control; under setting [1], 103 % of control; under setting [5], 90 % of control; under setting [2], 101 % of control; under setting [6], 92 % of control; under setting [3], 100 % of control.
For the compound `C=CCOP(=O)(OCC=C)C(Cl)(Cl)Cl`, the T/C runs as follows: (endpoint: mean survival time, dose: 75.0 mg/kg/injection, schedule: Q01DX001 (ip), vehicle: other) 109 % of control; (endpoint: mean survival time, dose: 150.0 mg/kg/injection, schedule: Q01DX001 (ip), vehicle: other) 97 % of control; (endpoint: mean survival time, dose: 300.0 mg/kg/injection, schedule: Q01DX001 (ip), vehicle: other) 109 % of control.
Regarding `CCCCCC(C(O)C#N)C(O)(C(F)(F)F)C(F)(F)F` (stereo not given), the T/C runs as follows: under setting [7], 96 % of control; under setting [8], 96 % of control; under setting [9], 90 % of control.
For `CCOC(=O)C(C(=O)OCC)C1c2ccccc2C(=O)N(CCN(C)C)c2ccccc21` (stereo not given), where the note is “endpoint: mean survival time, dose: 130.0 mg/kg/injection, schedule: Q01DX001 (ip), vehicle: saline”, the T/C was 103 % of control.
As for `CC1=C/C(=N\N=C2/C=C(C)CC(C)(C)C2)CC(C)(C)C1`, the T/C was 93 % of control under setting [7], 91 % of control under setting [8] and 89 % of control under setting [9].
With `CC1CC/C(=N/NC(N)=O)C1` (stereo not given), the T/C by setting is: (endpoint: mean survival time, dose: 50.0 mg/kg/injection, schedule: Q01DX001 (ip), vehicle: carboxymethylcellulose (CMC)) 100 % of control; (endpoint: mean survival time, dose: 100.0 mg/kg/injection, schedule: Q01DX001 (ip), vehicle: carboxymethylcellulose (CMC)) 94 % of control; (endpoint: mean survival time, dose: 200.0 mg/kg/injection, schedule: Q01DX001 (ip), vehicle: carboxymethylcellulose (CMC)) 100 % of control; (endpoint: mean survival time, dose: 400.0 mg/kg/injection, schedule: Q01DX001 (ip), vehicle: carboxymethylcellulose (CMC)) 100 % of control.
Regarding `OCC1C2C=CC(c3ccccc32)C1CO` (stereo not given), the T/C reads like this: (endpoint: mean survival time, dose: 50.0 mg/kg/injection, schedule: Q04DX002 (ip), vehicle: saline with Tween-80) 106 % of control; under setting [10], 88 % of control; under setting [11], 95 % of control.
As for `CC1(C)OC2C(CN=[N+]=[N-])OC(n3cnc4c(=O)[nH]c(N)nc43)C2O1` (stereo not given), the T/C (endpoint: mean survival time, dose: 100.0 mg/kg/injection, schedule: Q01DX001 (ip), vehicle: Klucel (hydroxypropylcellulose) (HPC)) was 109 % of control; the T/C (endpoint: mean survival time, dose: 200.0 mg/kg/injection, schedule: Q01DX001 (ip), vehicle: Klucel (hydroxypropylcellulose) (HPC)) was 97 % of control; the T/C (endpoint: mean survival time, dose: 400.0 mg/kg/injection, schedule: Q01DX001 (ip), vehicle: Klucel (hydroxypropylcellulose) (HPC)) is 97 % of control.
Turning to `O=C1c2ccccc2C(=O)N1C1CCCCC1`, the T/C under setting [1] was 100 % of control, the T/C under setting [2] is 95 % of control and the T/C under setting [3] is 95 % of control.
As to `CN(C)C(=O)Nc1ccc(Br)cc1`, the T/C reads like this: under setting [10], 86 % of control; under setting [11], 93 % of control; (endpoint: mean survival time, dose: 400.0 mg/kg/injection, schedule: Q04DX002 (ip), vehicle: saline with Tween-80) 93 % of control.
